# Assay: FLIPR Tetra Assay: IC50 (effective concentration) of compounds on the human and rat TRPA1 channels were determined using a FLIPR Tetra instrument. CHO cells expressing TRPA1 were plated into 384-well plates, incubated overnight at 37° C., and loaded with BD calcium indicator dye for 1 hr at 37° C. followed by 15 minutes. at room temperature. The assay buffer was Hank's Balanced Salt Solution (HBSS) containing 20 mM HEPES (pH readjusted to 7.4) along with 0.02% BSA.Following dye load and plate cool down, compounds were added to the cells using FLIPR Tetra. Plates were then incubated with compounds for 20 minutes at room temperature prior to adding agonist. Following this incubation, ˜EC80 concentration of cinnamaldehyde (75 uM for human TRPA1 and 45 uM for rat TRPA1) was added to active the channels and block of cinnamaldehyde induced calcium influx was measured.
row,IC50 [nM],Compound
1,12.1,O=C(NCc1cc(-c2cnc(C(F)(F)F)nc2)cnc1C(F)(F)F)[C@@H]1C2CC(C2)N1S(=O)(=O)c1ccc(F)cc1
2,10.6,O=C(NCc1cc(-c2cnc(C(F)(F)F)nc2)c(F)cn1)[C@@H]1C2CC(C2)N1S(=O)(=O)c1ccc(F)c(F)c1
3,6.08,O=C(NCc1cc(-c2cnc(C(F)(F)F)nc2)ncc1Cl)[C@@H]1C2CC(C2)N1S(=O)(=O)c1ccc(F)cc1
4,16.3,O=C(NCc1cc(-c2cnc(C(F)(F)F)nc2)ncc1C1CC1)[C@@H]1C2CC(C2)N1S(=O)(=O)c1ccc(F)cc1
